The target in one experiment is T1, CDK9/CycT1 (Homo sapiens, UniProt P50750).
T1 construct: Recombinant full-length His-tagged human CDK9 and CycT1; His; purchased Invitrogen PV4131; host or cells: insect cells
Kind of experiment: CDK9/CycT1 kinase assay (Method 1a, TR-FRET). It is filed as biochemical. The settings on record: for IC50: Method 1a, 10 μM ATP; for Selectivity CDK9 over CDK2: IC50 (CDK2)/IC50 (CDK9): ratio of Method 2 to Method 1a values. From the text:
1a. CDK9/CyeT1 Kinase Assay:
CDK9/CycT1-inhibitory activity of compounds of the present invention was quantified employing the CDK9/CycT1 TR-FRET assay as described in the following paragraphs:
Recombinant full-length His-tagged human CDK9 and CycT1, expressed in insect cells and purified by Ni-NTA affinity chromatography, were purchased from Invitrogen (Cat. No PV4131). As substrate for the kinase reaction biotinylated peptide biotin-Ttds-YISPLKSPYKISEG (C-terminus in amid form) was used which can be purchased e.g. form the company JERINI Peptide Technologies (Berlin, Germany). For the assay 50 nl of a 100 fold concentrated solution of the test compound in DMSO was pipetted into a black low volume 384 well microtiter plate (Greiner Bio-One, Frickenhausen, Germany), 2 μl of a solution of CDK9/CycT1 in aqueous assay buffer [50 mM Tris/HCl pH 8.0, 10 mM MgCl2, 1.0 mM dithiothreitol, 0.1 mM sodium ortho-vanadate, 0.01% (v/v) Nonidet-P40 (Sigma)] were added and the mixture was incubated for 15 min at 22° C. to allow pre-binding of the test compounds to the enzyme before the start of the kinase reaction. Then the kinase reaction was started by the addition of 3 μl of a solution of adenosine-tri-phosphate (ATP, 16.7 μM=>final conc. in the 5 μl assay volume is 10 μM) and substrate (1.67 μM=>final conc. in the 5 μl assay volume is 1 μM) in assay buffer and the resulting mixture was incubated for a reaction time of 25 min at 22° C. The concentration of CDK9/CycT1 was adjusted depending of the activity of the enzyme lot and was chosen appropriate to have the assay in the linear range, typical concentrations were in the range of 1 μg/mL. The reaction was stopped by the addition of 5 μl of a solution of TR-FRET detection reagents (0.2 μM streptavidine-XL665 [Cisbio Bioassays, Codolet, France] and 1 nM anti-RB(pSer807/pSer811)-antibody from BD Pharmingen [#558389] and 1.2 nM LANCE EU-W1024 labeled anti-mouse IgG antibody [Perkin-Elmer, product no. AD0077]) in an aqueous EDTA-solution (100 mM EDTA, 0.2% (w/v) bovine serum albumin in 100 mM HEPES/NaOH pH 7.0).
The resulting mixture was incubated 1 h at 22° C. to allow the formation of complex between the phosphorylated biotinylated peptide and the detection reagents. Subsequently the amount of phosphorylated substrate was evaluated by measurement of the resonance energy transfer from the Eu-chelate to the streptavidine-XL. Therefore, the fluorescence emissions at 620 nm and 665 nm after excitation at 350 nm was measured in a HTRF reader, e.g. a Rubystar (BMG Labtechnologies, Offenburg, Germany) or a Viewlux (Perkin-Elmer). The ratio of the emissions at 665 nm and at […] was taken as the measure for the amount of phosphorylated substrate. The data were normalised (enzyme reaction without inhibitor=0% inhibition, all other assay components but no enzyme=100% inhibition).

The test system of experiment [1] is HeLa, human cervical tumour cells. Kind of experiment: Proliferation assay, HeLa (crystal violet). It is filed as cell-based. As to conditions: 96 h, 4 days, read-out: Inhibition of HeLa cell proliferation. As for the experimental part:
(§1) Cultivated tumour cells (HeLa, human cervical tumour cells, ATCC CCL-2; NCI-H460, human non-small cell lung carcinoma cells, ATCC HTB-177; A2780, human ovarian carcinoma cells, ECACC #93112519; DU 145, hormone-independent human prostate carcinoma cells, ATCC HTB-81; HeLa-MaTu-ADR, multidrug-resistant human cervical carcinoma cells, EPO-GmbH Berlin; Caco-2, human colorectal carcinoma cells, ATCC HTB-37; B16F10, mouse melanoma cells, ATCC CRL-6475) were plated at a density of 5,000 cells/well (DU145, HeLa-MaTu-ADR), 3,000 cells/well (NCI-H460, HeLa), 2,500 cells/well (A2780), 1,500 cells/well (Caco-2), or 1,000 cells/well (B16F10) in a 96-well multititer plate in 200 μL of their respective growth medium supplemented 10% fetal calf serum. After 24 hours, the cells of one plate (zero-point plate) were stained with crystal violet (see below), while the medium of the other plates was replaced by fresh culture medium (200 μl), to which the test substances were added in various concentrations (0 μM, as well as in the range of 0.001-10 μM; the final concentration of the solvent dimethyl sulfoxide was 0.5%). The cells were incubated for 4 days in the presence of test substances. Cell proliferation was determined by staining the cells with crystal violet: the cells were fixed by adding 20 μl/measuring point of an 11% glutaric aldehyde solution for 15 minutes at room temperature. After three washing cycles of the fixed cells with water, the plates were dried at room temperature. The cells were stained by adding 100 μl/measuring point of a 0.1% crystal violet solution (pH 3.0). After three washing cycles of the stained cells with water, the plates were dried at room temperature. The dye was dissolved by adding 100 μl/measuring point of a 10% acetic acid solution. The extinction was determined by photometry at a wavelength of 595 nm. The change of cell number, in percent, was calculated by normalization of the measured values to the extinction values of the zero-point plate (=0%) and the extinction of the untreated (0 μm) cells (=100%). The IC50 values (inhibitory concentration at 50% of maximal effect) were determined by means of a 4 parameter fit.

Experiment [2] relates to HeLa-MaTu-ADR, multidrug-resistant human cervical carcinoma cells. Nature of the experiment: Proliferation assay, HeLa-MaTu-ADR (crystal violet). It is filed as cell-based. The settings on record: 96 h, 4 days, read-out: Inhibition of HeLa-MaTu-ADR cell proliferation. The method, then:
as §1

Experiment [3] relates to NCI-H460, human non-small cell lung carcinoma cells. Kind of experiment: Proliferation assay, NCI-H460 (crystal violet). As to conditions: 96 h, NCI-H460, 4 days, read-out: Inhibition of NCI-H460 cell proliferation. Type of experiment: cell-based. The method, then: as §1
For experiment [4], the system named is DU 145, hormone-independent human prostate carcinoma cells. Nature of the experiment: Proliferation assay, DU145 (crystal violet). As to conditions: DU-145, 96 h, DU145, 4 days, read-out: Inhibition of DU145 cell proliferation. Type of experiment: cell-based. The method, then: as §1
Experiment [5] deals with Caco-2, human colorectal carcinoma cells. Kind of experiment: Proliferation assay, Caco-2 (crystal violet). It is filed as cell-based. As to conditions: 96 h, Caco-2, 4 days, read-out: Inhibition of Caco-2 cell proliferation. The method, then: as §1
Experiment [6] relates to B16F10, mouse melanoma cells. Kind of experiment: Proliferation assay, B16F10 (crystal violet). As to conditions: B16-F10, 96 h, B16F10, 4 days, read-out: Inhibition of B16F10 cell proliferation. It is filed as cell-based. As for the experimental part:
as §1

T1 sequence (P50750 whole entry): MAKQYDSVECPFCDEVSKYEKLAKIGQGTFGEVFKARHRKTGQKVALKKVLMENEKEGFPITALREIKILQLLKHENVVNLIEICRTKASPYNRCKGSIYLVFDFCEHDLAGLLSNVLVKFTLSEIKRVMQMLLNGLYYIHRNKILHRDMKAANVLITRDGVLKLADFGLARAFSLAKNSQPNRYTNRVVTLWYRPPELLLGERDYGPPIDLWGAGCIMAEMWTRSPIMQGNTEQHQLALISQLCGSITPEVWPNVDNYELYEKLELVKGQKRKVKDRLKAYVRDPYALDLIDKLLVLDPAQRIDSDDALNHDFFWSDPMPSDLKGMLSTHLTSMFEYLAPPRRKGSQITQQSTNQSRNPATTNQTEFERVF
T1 sequence (O60563 whole entry partner): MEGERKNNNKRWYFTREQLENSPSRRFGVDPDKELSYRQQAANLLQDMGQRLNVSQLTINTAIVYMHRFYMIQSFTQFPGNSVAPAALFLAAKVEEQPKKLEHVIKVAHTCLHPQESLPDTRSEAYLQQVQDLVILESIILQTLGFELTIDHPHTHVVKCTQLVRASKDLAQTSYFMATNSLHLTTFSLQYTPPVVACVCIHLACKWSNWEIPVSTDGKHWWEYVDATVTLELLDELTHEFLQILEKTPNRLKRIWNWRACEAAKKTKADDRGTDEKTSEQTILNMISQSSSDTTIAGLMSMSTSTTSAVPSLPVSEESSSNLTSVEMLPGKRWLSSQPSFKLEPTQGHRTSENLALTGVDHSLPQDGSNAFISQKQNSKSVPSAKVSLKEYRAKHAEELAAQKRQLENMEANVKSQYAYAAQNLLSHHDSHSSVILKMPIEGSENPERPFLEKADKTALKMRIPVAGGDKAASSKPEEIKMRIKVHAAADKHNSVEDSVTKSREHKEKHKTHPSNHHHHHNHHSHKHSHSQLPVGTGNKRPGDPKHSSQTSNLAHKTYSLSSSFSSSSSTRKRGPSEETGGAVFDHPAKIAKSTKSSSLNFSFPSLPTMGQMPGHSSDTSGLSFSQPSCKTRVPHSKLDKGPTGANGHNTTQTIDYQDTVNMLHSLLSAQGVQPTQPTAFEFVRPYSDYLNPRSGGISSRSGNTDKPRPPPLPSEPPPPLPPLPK

As for `CCOC(=O)N=S(C)(=O)Cc1ccnc(Nc2cc(-c3ccc(F)c4ccoc34)c(F)cn2)c1` (racemic) [Example 11, (rac)-Ethyl {[(2-{[5-fluoro-4-(4-fluoro-1-benzofuran-7-yl)pyridin-2-yl]amino}pyridin-4-yl)methyl](methyl)oxido-λ^6-sulfanylidene}carbamate], at CDK9/CycT1, the IC50 is 3.1 nM and the “Selectivity CDK9 over CDK2: IC50 (CDK2)/IC50 (CDK9)” value (“Selectivity CDK9 over CDK2: IC50” for short) was 45.
For `CS(=O)(Cc1cc(Nc2cc(-c3ccc(F)c4ccoc34)c(F)cn2)nc(C(F)(F)F)c1)=NC(=O)C(F)(F)F` (racemic) [Example 4, (rac)-2,2,2-Trifluoro-N-[{[2-{[5-fluoro-4-(4-fluoro-1-benzofuran-7-yl)pyridin-2-yl]amino}-6-(trifluoromethyl)pyridin-4-yl]methyl}(methyl)oxido-λ^6-sulfanylidene]acetamide], the IC50 against CDK9/CycT1 was determined as 19 nM; in experiment [1] it was 31 nM; in experiment [2], 30 nM; in experiment [3], 36 nM; in experiment [4], 37 nM; in experiment [5], 40 nM. Moreover, in experiment [6], the IC50 stood at 44 nM. Also, the “Selectivity CDK9 over CDK2: IC50” value on CDK9/CycT1 is 5.8.
As for `CS(=N)(=O)Cc1cc(F)nc(Nc2cc(-c3ccc(F)c4ccoc34)c(F)cn2)c1` (racemic) [Example 1, (rac)-5-Fluoro-4-(4-fluoro-1-benzofuran-7-yl)-N-{6-fluoro-4-[(S-methylsulfonimidoyl)methyl]pyridin-2-yl}pyridin-2-amine], the IC50 was 4 nM against CDK9/CycT1; 30 nM in experiment [1]; 30 nM in experiment [2]; 36 nM in experiment [3]; 33 nM in experiment [4]; 34 nM in experiment [5]. Further, the IC50 in experiment [6] amounted to 41 nM. The “Selectivity CDK9 over CDK2: IC50” value at CDK9/CycT1 was determined as 11.
For the molecule `CS(=O)(Cc1ccnc(Nc2cc(-c3ccc(F)c4ccoc34)c(F)cn2)c1)=NC#N` (racemic) [Example 9, (rac)-{[(2-{[5-fluoro-4-(4-fluoro-1-benzofuran-7-yl)pyridin-2-yl]amino}pyridin-4-yl)methyl](methyl)oxido-λ^6-sulfanylidene}cyanamide], on CDK9/CycT1, the IC50 is 2.6 nM and the “Selectivity CDK9 over CDK2: IC50” value turned out to be 56.
Consider `CS(=O)(Cc1ccnc(Nc2cc(-c3ccc(F)c4ccoc34)c(F)cn2)c1)=NC(=O)C(F)(F)F` (racemic) [Example 6, (rac)-2,2,2-Trifluoro-N-{[(2-{[5-fluoro-4-(4-fluoro-1-benzofuran-7-yl)pyridin-2-yl]amino}pyridin-4-yl)methyl](methyl)oxido-λ^6-sulfanylidene}acetamide], for which the IC50 at CDK9/CycT1 was found to be 4.9 nM; in experiment [1] it was 42 nM; in experiment [2], 52 nM; in experiment [3] it was 46 nM; in experiment [4], 42 nM; in experiment [5] it was 58 nM. In addition, the IC50 in experiment [6] came out at 88 nM. For the same molecule, the “Selectivity CDK9 over CDK2: IC50” value on CDK9/CycT1 turned out to be 110.
Take `CS(=O)(Cc1cc(F)nc(Nc2cc(-c3ccc(F)c4ccoc34)c(F)cn2)c1)=NC(=O)C(F)(F)F` (racemic) [Example 2, (rac)-2,2,2-Trifluoro-N-{[(2-fluoro-6-{[5-fluoro-4-(4-fluoro-1-benzofuran-7-yl)pyridin-2-yl]amino}pyridin-4-yl)methyl](methyl)oxido-λ^6-sulfanylidene}acetamide]: the IC50 against CDK9/CycT1 came out at 7 nM; in experiment [1], 31 nM; in experiment [2], 30 nM; in experiment [3], 32 nM; in experiment [4], 32 nM; in experiment [5], 35 nM. Also, the IC50 in experiment [6] stood at 42 nM. In addition, the “Selectivity CDK9 over CDK2: IC50” value on CDK9/CycT1 worked out at 54.
Turning to `CC(=O)N=S(C)(=O)Cc1ccnc(Nc2cc(-c3ccc(F)c4ccoc34)c(F)cn2)c1` (racemic) [Example 10, (rac)-N-{[(2-{[5-fluoro-4-(4-fluoro-1-benzofuran-7-yl)pyridin-2-yl]amino}pyridin-4-yl)methyl](methyl)oxido-λ^6-sulfanylidene}acetamide], at CDK9/CycT1, the IC50 amounted to 2.7 nM and the “Selectivity CDK9 over CDK2: IC50” value is 61.
For `CCc1cc(CS(C)(=N)=O)cc(Nc2cc(-c3ccc(F)c4ccoc34)c(F)cn2)n1` (racemic) [Example 8, (rac)-N-{6-Ethyl-4-[(S-methylsulfonimidoyl)methyl]pyridin-2-yl}-5-fluoro-4-(4-fluoro-1-benzofuran-7-yl)pyridin-2-amine], the IC50 worked out at 7.6 nM in experiment [1]; 8.8 nM in experiment [2]; 35 nM in experiment [3]; 11 nM in experiment [4]; 9.4 nM in experiment [5]; 32 nM in experiment [6].
Take `CS(=O)(Cc1ccnc(Nc2cc(-c3ccc(F)c4ccoc34)c(F)cn2)c1)=NC(=O)NCC(F)(F)F` (racemic) [Example 13, (rac)-1-{[(2-{[5-Fluoro-4-(4-fluoro-1-benzofuran-7-yl)pyridin-2-yl]amino}pyridin-4-yl)methyl](methyl)oxido-λ^6-sulfanylidene}-3-(2,2,2-trifluoroethyl)urea]: on CDK9/CycT1, the IC50 came out at 2.6 nM and the “Selectivity CDK9 over CDK2: IC50” value was determined as 108.
Taken in the same sequence, the figures for `CCNC(=O)N=S(C)(=O)Cc1ccnc(Nc2cc(-c3ccc(F)c4ccoc34)c(F)cn2)c1` (racemic) [Example 12, (rac)-1-Ethyl-3-{[(2-{[5-fluoro-4-(4-fluoro-1-benzofuran-7-yl)pyridin-2-yl]amino}pyridin-4-yl)methyl](methyl)oxido-λ^6-sulfanylidene}urea] were 2.6 nM and 44.

The record behind these values is patent US9770445B2, “Sulfoximine substituted 5-fluoro-N-(pyridin-2-yl)pyridin-2-amine derivatives and their use as CDK9 kinase inhibitors” (BAYER PHARMA AKTIENGESELLSCHAFT, priority 2013, dated 2017).
